Key:
[1] = tested on: breast cancer; assay: Bayesian analysis (MCMC simulation on I-SPY 2 data) of the predicted probability of Phase III success; assay type: in vivo, human
Text: Adaptive design trials are constructed on the basis of assigning patients to certain signature groups such as signature biomarker groups, the goal being to determine predictive probabilities of success in Phase III trials for various targeted therapeutics. In essence, the design trials provide data that facilitates the determination of which patient biomarker signatures respond to various regimens. A regimen would “graduate” from trial if probability of statistical significance in Phase III reaches 85% for any signature, provided that a minimum of 60 patients have been assigned to the regimen. Neratinib was one of 7 agents tested in the experimental arms of the ISPY-2 TRIAL to date.
Bayesian analysis was completed using the MCMC simulation based on I-SPY 2 data with the following model: pCR˜HR+HER2+biomarker+treatment+treatment*HR+treatment*HER2+treatment*biomarker. No multiple comparison adjustments were applied. The Bayesian analytical engine developed by Don Berry (Yee et al J Clin Oncol. 2012 Dec. 20; 30(36):4584-6), is a mathematical approach that evaluates the clinical performance of a drug (in this case, neratinib) in both the treatment arm (in this case tumor shrinkage estimates by size changes observed by MRI), coupled with complete pathological response (pCR) as measured as the final response determinant, and the response of the predicate therapy in the control arm. This evaluation determined success of a given therapy for a Phase III trial, and in this case, it was determined that phosphorylation of EGFR at Y1173 was not only statistically significant at predicting or assessing response to neratinib in all patients regardless of hormone receptor levels and HER2 levels (HER2+, HER2− and HR+ and HR−), but when patients with high levels of phosphorylated EGFR (Y1173) were added to the HR−/HER2+ subgroup, the prevalence of ‘biomarker-positive’ patients increased by 50%, while increasing the predicted probability of Phase III success to 90%. […]

[2] = tested on: HER2− breast cancer; assay: I-SPY 2 TRIAL: pCR response of breast cancer patients treated with veliparib; assay type: in vivo, human
Text: Currently, treatment of Stage II/III breast cancer involves neoadjuvant treatment (pre-surgical) with drug regimens that may include therapies targeting specific molecular defects. Disclosed herein are novel methods for treatment of breast cancer comprising identifying biomarkers that predict response to therapeutic agents used in the pre-surgical stage of treatment of cancer. Subjects providing samples (pre-treatment biopsies) for studies described herein were characterized based on measurement of estrogen/hormone receptor (HR) and HER2 (c-erbB2), and were described by HER2−/HR−. HER2+/HR+. HER2+/HR−, HER2−/HR+ phenotypes. Response to treatment was determined by the amount of tumor shrinkage and a lack of appreciable tumor evident at surgery. […] This microarray allows for quantitative measurement of the amount of proteins and/or phosphorylated proteins in the tumor or cancerous cells from pretreatment sample, for example from biopsy specimens of women with Stage II/III breast cancer. […]
This example tested the hypothesis that the response to the PARP inhibitor, veliparib, was predicted by specific biomarkers. […] Various proteins were evaluated as biomarkers of veliparib response using reverse phase protein microarray (RPMA) data from pre-treatment laser capture microdissection (LCM) purified tumor epithelium. […]

| Compound | Phase III success (predicted probability) ([1]; EGFR Y1173 used as a single marker, all patients) [%] | Phase III success (predicted probability) ([1]; HER2+/HR− status as measured by immunohistochemical methods) [%] | predicted probability of Phase III success ([1]; patients with high levels of phosphorylated EGFR (Y1173) added to the HR−/HER2+ subgroup) [%] | clinical response ([2]; HER2−/HR− subtype) | complete pathological response (pCR) ([2]; women with both HR+ and HR− tumors) |
| --- | --- | --- | --- | --- | --- |
| CCOc1cc2ncc(C#N)c(Nc3ccc(OCc4ccccn4)c(Cl)c3)c2cc1NC(=O)/C=C/CN(C)C [neratinib] | 93 | 87 | 90 | – | – |
| C[C@]1(c2nc3c(C(N)=O)cccc3[nH]2)CCCN1 [veliparib] | – | – | – | statistically significant clinical response | pCR was observed |
